Data on four compounds can be found in patent publication US20130040306A1, “BACKSCATTERING INTERFEROMETRIC ANALYSIS OF MEMBRANE MATERIALS” (priority 2011, published 2013).

“Also recorded” adds a separate entry of the source.

For one data set, the target named is T1, PLD1.d311 (Homo sapiens, UniProt Q13393).
T1 construct: an amino-terminally-truncated and catalytically active construct; made in house; host or cells: SF21 insect cells
T1 sequence (Q13393 312-1074 limits assumed): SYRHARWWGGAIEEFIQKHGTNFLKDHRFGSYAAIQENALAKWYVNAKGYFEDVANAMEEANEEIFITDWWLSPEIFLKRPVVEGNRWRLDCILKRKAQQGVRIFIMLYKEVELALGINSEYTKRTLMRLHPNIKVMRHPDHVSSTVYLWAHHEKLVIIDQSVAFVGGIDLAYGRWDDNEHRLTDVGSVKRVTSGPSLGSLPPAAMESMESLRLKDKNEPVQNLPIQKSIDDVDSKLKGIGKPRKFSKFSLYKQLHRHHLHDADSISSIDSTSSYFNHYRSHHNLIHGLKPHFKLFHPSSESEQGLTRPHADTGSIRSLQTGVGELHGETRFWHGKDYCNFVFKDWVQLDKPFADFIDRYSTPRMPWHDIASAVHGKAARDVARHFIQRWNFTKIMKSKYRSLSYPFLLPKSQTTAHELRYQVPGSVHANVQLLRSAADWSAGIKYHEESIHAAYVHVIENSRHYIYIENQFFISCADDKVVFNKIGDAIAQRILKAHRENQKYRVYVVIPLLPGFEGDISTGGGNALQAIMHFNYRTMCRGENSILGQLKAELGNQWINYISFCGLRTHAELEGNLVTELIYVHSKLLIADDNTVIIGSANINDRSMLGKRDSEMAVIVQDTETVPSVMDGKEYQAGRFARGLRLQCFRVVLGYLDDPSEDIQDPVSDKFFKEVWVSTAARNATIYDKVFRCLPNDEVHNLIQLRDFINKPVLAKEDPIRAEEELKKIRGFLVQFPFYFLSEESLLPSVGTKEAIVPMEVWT
The experiment in a line: in vitro PLD activity assay (release of tritiated choline headgroup, lipid vesicles). The format is biochemical. To be noted: for IC50: in vitro PLD activity assay. As to the method: In vitro activity assays can be performed to measure changes in Km, and Vmax due to small molecule inhibition. This reconstitution assay uses large unilamellar vesicles (generated by extrusion of defined % mol amounts of purified lipid species) incubated with purified PLD and measures the release of a tritiated choline headgroup as a readout of catalytic activity.
Concentration response curves were generated in a radioisotopically labelled activity assay for three VU-series compounds and tungstate with N-myr-Arf1 activated PLD1.d311. Ki measurements of these inhibitors were obtained using BSI.

Data set [1] concerns the target T2, PLD1c.d311 (Homo sapiens, UniProt Q13393).
T2 construct: an amino-terminally-truncated and catalytically active construct; made in house; host or cells: SF21 insect cells
T2 sequence (Q13393 312-1074 limits assumed): T1 sequence (Q13393 312-1074 limits assumed)
Description: BSI small molecule binding to purified PLD1c.d311 in the absence of lipid. To be noted: for direct binding to purified PLD1c.d311 by BSI: absence of lipid. The source says: Protein constructs that are composed of different domains of the enzyme are thus used to determine the approximate site of small molecule interaction. The bulk of the studies performed thus far use human PLD1c.d311, an amino-terminally-truncated and catalytically active construct that has robust expression in SF21 insect cells, and can be purified to homogeneity over a single affinity chromatography step. This construct does retain a small portion of the pleckstrin homology domain that is necessary for catalytic activity of the enzyme (reason for this is unknown).
Binding studies are performed using backscattering interferometry (BSI), which can be performed on an efficient nanoscale level with a picomolar limit of detection, and can be used to measure Ki and Ks values for inhibitor-treated purified protein.
(§1) For the backscattering interferometry experiments, large-unilamellar lipid vesicles are generated via extrusion for use in interfacial kinetic studies. The composition generally includes 86% mol neutral diluent (36:2 PE or 36:2 PG), 5% mol PI(4,5)P2, and 8% mol 32:0 PC. Following extrusion, bulk lipid concentration is confirmed via quantitative LC/MS. A HeNe laser beam is then directed at a sample in the channel of a microfluidic chip, resulting in an interference fringe pattern that is detected by the CCD camera. This fringe pattern shifts spatially as the refractive index (RI) of the sample changes; these shifts are translated into a numerical change in phase of the corresponding Fourier transformation. The absolute value of the magnitude in phase change corresponds to the change in solvation/hydration of the protein upon binding ligand, and can be used to plot a ligand binding curve. This inventive BSI technique can also accurately and reproducibly measure protein-lipid binding. This technique measures small shifts in RI phase (limit of sensitivity is picomolar) and requires only nanomolar concentrations of protein and ligand in a 1 μl volume channel.

Data set [2] deals with T2, PLD1c.d311. The experiment in a line: BSI interfacial lipid binding affinity (Ks) of PLD after small molecule treatment. Particulars: small molecule treated enzyme. An excerpt:
Eukaryotic PLD is an interfacial enzyme that, in the classic model, binds the lipid surface via interaction with PI(4,5)P2 prior to hydrolyzing substrate. […] In order to study PLD, the interfacial binding affinity must first be measured (Ks), and subsequent studies must saturate lipid binding to force application of Michaelis-Menten kinetics.
(§2) For the backscattering interferometry experiments, large-unilamellar lipid vesicles are generated via extrusion for use in interfacial kinetic studies. The composition generally includes 86% mol neutral diluent (36:2 PE or 36:2 PG), 5% mol PI(4,5)P2, and 8% mol 32:0 PC. Following extrusion, bulk lipid concentration is confirmed via quantitative LC/MS. A HeNe laser beam is then directed at a sample in the channel of a microfluidic chip, resulting in an interference fringe pattern that is detected by the CCD camera. This fringe pattern shifts spatially as the refractive index (RI) of the sample changes; these shifts are translated into a numerical change in phase of the corresponding Fourier transformation. […]
(§3) BSI can also be used to measure changes in lipid binding affinities due to small molecule treatment. BSI-derived values can be compared to Ks values determined using classic biochemical methods.

For data set [3], the target named is T3, albumin (Homo sapiens, UniProt P02768). The experiment in a line: BSI small molecule binding to albumin in the absence of lipid.
T3 sequence (P02768 25-609, species assumed): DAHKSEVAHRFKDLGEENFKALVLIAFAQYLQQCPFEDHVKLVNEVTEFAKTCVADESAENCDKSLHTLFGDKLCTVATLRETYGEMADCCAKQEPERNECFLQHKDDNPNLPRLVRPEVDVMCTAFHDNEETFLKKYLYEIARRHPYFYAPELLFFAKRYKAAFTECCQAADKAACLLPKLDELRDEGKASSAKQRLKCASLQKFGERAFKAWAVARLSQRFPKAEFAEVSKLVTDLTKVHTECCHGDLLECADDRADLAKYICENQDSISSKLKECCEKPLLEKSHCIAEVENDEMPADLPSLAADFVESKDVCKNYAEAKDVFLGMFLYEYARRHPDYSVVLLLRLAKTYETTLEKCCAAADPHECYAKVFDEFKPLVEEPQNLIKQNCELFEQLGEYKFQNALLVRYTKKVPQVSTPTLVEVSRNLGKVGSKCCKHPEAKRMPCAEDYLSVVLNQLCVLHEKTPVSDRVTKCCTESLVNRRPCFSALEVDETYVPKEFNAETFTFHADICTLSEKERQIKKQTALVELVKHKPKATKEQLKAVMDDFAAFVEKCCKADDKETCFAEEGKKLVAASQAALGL
From the text: as §1, with “This technique measures small shifts in RI phase (limit of sensitivity is picomolar) and requires only nanomolar concentrations of protein and ligand in a 1 μl volume channel.” left out
(§4) BSI was used to measure Kd of two VU-series compounds for albumin in the absence of lipid. […] As another control to confirm that vesicle composition is not disrupted due to small molecule treatment, Kd and Ks are measured for PLCδ1, which binds PIP2 at both its PH and catalytic domains.

Data set [4] concerns the target T3, albumin. Description: BSI lipid binding (Ks) with albumin after small molecule treatment. To be noted: small molecule treatment vs vehicle.
From the text: as §2, with “transformation. The absolute value of the magnitude in phase change corresponds to the change in solvation/hydration of the protein upon binding ligand, and can be used to plot a ligand binding curve.” for “transformation.”
as §3, §4

Data set [5] can be described thus: preliminary DMPK plasma protein studies. The class given is in vitro ADME.
For data set [6], the target named is T4, PLCδ1 (Homo sapiens, UniProt P51178).
T4 sequence (P51178 1-756): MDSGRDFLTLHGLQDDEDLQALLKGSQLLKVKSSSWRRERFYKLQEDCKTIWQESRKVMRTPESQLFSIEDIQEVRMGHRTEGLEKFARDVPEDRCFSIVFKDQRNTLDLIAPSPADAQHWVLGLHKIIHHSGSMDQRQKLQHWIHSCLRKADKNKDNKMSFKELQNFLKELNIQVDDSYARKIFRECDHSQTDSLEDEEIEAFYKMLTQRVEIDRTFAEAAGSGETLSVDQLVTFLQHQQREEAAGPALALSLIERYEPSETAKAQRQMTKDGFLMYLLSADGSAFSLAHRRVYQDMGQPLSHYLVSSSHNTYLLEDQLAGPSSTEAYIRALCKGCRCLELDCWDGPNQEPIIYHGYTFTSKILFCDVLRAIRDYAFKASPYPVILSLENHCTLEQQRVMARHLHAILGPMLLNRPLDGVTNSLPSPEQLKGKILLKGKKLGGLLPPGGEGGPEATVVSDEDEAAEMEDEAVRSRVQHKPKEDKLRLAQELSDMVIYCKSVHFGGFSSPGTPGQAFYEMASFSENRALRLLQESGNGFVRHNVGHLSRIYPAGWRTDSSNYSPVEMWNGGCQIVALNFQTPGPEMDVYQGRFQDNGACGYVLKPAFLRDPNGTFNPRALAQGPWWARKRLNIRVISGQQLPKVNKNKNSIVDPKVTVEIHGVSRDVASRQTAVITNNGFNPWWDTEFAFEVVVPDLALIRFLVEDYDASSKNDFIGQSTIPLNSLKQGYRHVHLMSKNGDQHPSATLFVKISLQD
Description: BSI small molecule binding (Kd) to PLCδ1 control. Particulars: control protein.
From the text: as §1, with “This technique measures small shifts in RI phase (limit of sensitivity is picomolar) and requires only nanomolar concentrations of protein and ligand in a 1 μl volume channel.” left out
as §4

Data set [7] has as its target T4, PLCδ1. The experiment in a line: BSI lipid binding (Ks) of PLCδ1 after small molecule treatment. Particulars: small molecule treatment vs vehicle.
From the text: as §1, with “This technique measures small shifts in RI phase (limit of sensitivity is picomolar) and requires only nanomolar concentrations of protein and ligand in a 1 μl volume channel.” left out
as §4

The IC50 is the point on the concentration scale where inhibition reaches its midpoint. Read a low IC50 as inhibition by little substance.

`O=C(c1ccc(OCCN2CCCCC2)cc1)c1c(-c2ccc(O)cc2)sc2cc(O)ccc12` [raloxifene]: on PLD1.d311, the “PLD inhibition in vitro (in words)” value is “confirmed to be PLD inhibitors in vitro” and the midpoint of inhibition, the IC50, lay at 10 µM. In addition, the “direct binding to purified PLD1c.d311 by BSI” value (“direct binding” for short) on PLD1c.d311 [1] is on record as “directly binds the enzyme”. Also, the “direct binding” value at PLD1c.d311 [1] (listed as Raloxifene) was “directly binds the enzyme in the absence of lipid”. Besides, the “shift of Ks (interfacial lipid binding) of PLD” value on PLD1c.d311 [2] was “shifting Ks; also recorded: shifts Ks”.

On to `[O]=[W](=[O])([O-])[O-]` [tungstate], for which the “Ki (BSI) compared with IC50 (activity assay)” value at PLD1c.d311 [1] (PLD1.d311, absence of lipid, vs IC50 with N-myr-Arf1 activated PLD1.d311) was at most 2 fold. Moreover, the “direct binding” value at PLD1c.d311 [1] is reported as “directly binds the inhibitors in the absence of lipid”.

For `CC/C(=C(\c1ccccc1)c1ccc(OCCN(C)C)cc1)c1ccccc1` [tamoxifen], on PLD1.d311, the “PLD inhibition in vitro (in words)” value was “confirmed to be PLD inhibitors in vitro” and the IC50 came out at 48 µM. Further, on PLD1c.d311 [1], the “direct binding” value is listed as “does not bind”. Besides, the “mechanism of PLD inhibition” value on PLD1c.d311 [1] (concluded from BSI measurements) is “indirectly inhibit PLD activity”.

For the compound `C[C@@H](CN1CCC(n2c(=O)[nH]c3cc(Br)ccc32)CC1)NC(=O)[C@@H]1C[C@H]1c1ccccc1` [VU0359595], on albumin [3], the “binding to albumin by BSI” value is “bind albumin”. Moreover, the “Ks compared to vehicle (albumin control)” value on albumin [4] is given as “disrupted compared to vehicle”. This compound showed a plasma protein bound in data set [5] of 98%. Also, the “binding to PLCδ1 by BSI” value on PLCδ1 [6] is on record as “does not bind”. The “Ks of PLCδ1 compared to vehicle” value on PLCδ1 [7] was “does not show shifted Ks”.
